# Results taken from US20220105082A1, “NEW FORMULATIONS CONTAINING LEUKOTRIENE RECEPTOR ANTAGONISTS” (JIANGYIN MUCOCARE PHARMACEUTICAL CO., LTD., priority 2019, published 2022).
# How the values were obtained:
# SD rats = assay: Idiopathic pulmonary fibrosis (IPF) model, bleomycin-induced; assay type: in vivo, rat; conditions: pirfenidone 120 mg/kg intragastric, 28 days
# Protocol: 50 Adult SD rats (Zhejiang Experimental Animal Center (Animal Production License Number: SCXK (Zhejiang, Chi-00, half male and half female were kept at 21-26° C. with 40-70% relative humidity, with free access to food and water.
# After 7 days of adaptive feeding, the rats were randomly divided into 5 groups: sham operation group, idiopathic pulmonary fibrosis model group, Monte gavage administrating group, Monte inhalation administrating group and pirfenidone control group.
# The rats were anaesthetized and placed on an operating table in the supine position, exposing the trachea. 150 μL of Bleomycin (Bleomycin Hydrochloride for Injection, Zhejiang Hisun Pharmaceutical Co. Ltd, China) in saline solution was injected into the trachea through the gap between the tracheal cartilage at 5 mg/kg. (The sham-operation group were given an equal volume of normal saline.)
# The rats were lifted vertically after administration and were rotated to allow the drug to evenly disperse. Once the rats recovered, after approximately 7 days, they were administrated different drugs according to Table 1 below. […]
# BALB/c mice = assay: Mouse ear swelling model (xylene induced); assay type: in vivo; conditions: cream 5 mg/g, 500 μg/mouse on right ear, 40 minutes
# Protocol: 35 healthy male BALB/c mice of 6-8 weeks of age and average body weight of 18-25 g supplied by Changzhou Cvens Experimental Animal Co. Ltd. were housed and cared for about for 1 week prior to the experiment. The housing temperature was 25-27° C. with 74% humidity, with alternating 12 hour periods of light and darkness, and free access to food and water. The mice were randomly divided into 4 groups as described in Table 1 below, with 5 mice in each group.
# The left ear of each mouse was used as autologous control. 20 μL of xylene (Shanghai Aladdin Bio-Chem Technology Co., Ltd., Shanghai, China) was applied to the right ear of each mouse, both inside and outside. The ear started to swell in about 4 minutes. Then, different amounts of each study treatments or vehicles (as described in Table 1 below) were applied to the right ears in each group. The mice were put back into their cages.
# The mice were sacrificed by cervical dislocation after 40 minutes. The left and right ears were cut off. A skin pouch (Electron Microscopy Sciences, Hatfield, USA) with diameter of 8 mm was used to take a piece of ear from the same site of both ears. The weights were recorded the weights and the swelling rates were calculated as follows:
# Swelling rate=(right ear weight−left ear weight)/left ear weight×100%
Structure (SMILES),HYP (SD rats; lung),IL-10 (SD rats; tissue),xylene induced swelling (BALB/c mice)
"Cc1ccc(=O)n(-c2ccccc2)c1 [Postitive Control, pirfenidone]",755.49 ± 66.64 μg/g wet weight,43.52 ± 4.30 pg/mg protein,–
COc1cc(C(=O)NS(=O)(=O)c2ccccc2C)ccc1Cc1cn(C)c2ccc(NC(=O)OC3CCCC3)cc12 [zafirlukast],–,–,significantly reduce
